Test results from ChEMBL document CHEMBL3861944 (Medchemcomm, 2016).

Assays:
THP-1 [1] = assay: Pro-apoptotic activity in human THP1 cells assessed as early apoptotic cells at 0.75 uM after 24 hrs by annexin V/propidium iodide staining-based flow cytometric method (reference value: 0.4 +/- 0.1%); assay type: functional
[2] = Cell cycle arrest in human THP1 cells assessed as accumulation at S phase at 30 uM after 24 hrs by flow cytometric method (reference value: 16 +/- 2%); assay type: functional, cell-based; conditions: THP-1
ASPC1 [3] = assay: Pro-apoptotic activity in human AsPC1 cells assessed as necrotic cells at 50 uM after 24 hrs by annexin V/propidium iodide staining-based flow cytometric method (reference value: 2.1 +/- 0.4%); assay type: functional
[4] = Cell cycle arrest in human AsPC1 cells assessed as accumulation at G0/G1 phase at 10 uM after 24 hrs by flow cytometric method (reference value: 48 +/- 7%); assay type: functional, cell-based
THP-1 [5] = assay: Pro-apoptotic activity in human THP1 cells assessed as necrotic cells at 0.5 uM after 24 hrs by annexin V/propidium iodide staining-based flow cytometric method relative to control; assay type: functional
ASPC1 [6] = assay: Pro-apoptotic activity in human AsPC1 cells assessed as early apoptotic cells at 30 uM after 24 hrs by annexin V/propidium iodide staining-based flow cytometric method (reference value: 0.8 +/- 0.1%); assay type: functional
[7] = Cell cycle arrest in human AsPC1 cells assessed as accumulation at G2/M phase at 50 uM after 24 hrs by flow cytometric method (reference value: 29 +/- 5%); assay type: functional, cell-based
ASPC1 [8] = assay: Pro-apoptotic activity in human AsPC1 cells assessed as early apoptotic cells at 100 uM after 24 hrs by annexin V/propidium iodide staining-based flow cytometric method (reference value: 0.8 +/- 0.1%); assay type: functional
[9] = Cell cycle arrest in human THP1 cells assessed as accumulation at G2/M phase at 3 uM after 24 hrs by flow cytometric method (reference value: 32 +/- 1%); assay type: functional, cell-based; conditions: THP-1
[10] = Cell cycle arrest in human THP1 cells assessed as accumulation at G0/G1 phase at 30 uM after 24 hrs by flow cytometric method (reference value: 51 +/- 6%); assay type: functional, cell-based; conditions: THP-1
THP-1 [11] = assay: Pro-apoptotic activity in human THP1 cells assessed as late apoptotic cells at 1 uM after 24 hrs by annexin V/propidium iodide staining-based flow cytometric method (reference value: 0.4 +/- 0.1%); assay type: functional
ASPC1 [12] = assay: Pro-apoptotic activity in human AsPC1 cells assessed as early apoptotic cells at 1 uM after 24 hrs by annexin V/propidium iodide staining-based flow cytometric method (reference value: 0.8 +/- 0.1%); assay type: functional
THP-1 [13] = assay: Pro-apoptotic activity in human THP1 cells assessed as necrotic cells at 3 uM after 24 hrs by annexin V/propidium iodide staining-based flow cytometric method relative to control; assay type: functional
[14] = Cell cycle arrest in human THP1 cells assessed as accumulation at G2/M phase at 0.75 uM after 24 hrs by flow cytometric method (reference value: 32 +/- 1%); assay type: functional, cell-based; conditions: THP-1
[15] = Cell cycle arrest in human THP1 cells assessed as accumulation at G0/G1 phase at 0.75 uM after 24 hrs by flow cytometric method (reference value: 51 +/- 6%); assay type: functional, cell-based; conditions: THP-1
ASPC1 [16] = assay: Pro-apoptotic activity in human AsPC1 cells assessed as necrotic cells at 1 uM after 24 hrs by annexin V/propidium iodide staining-based flow cytometric method (reference value: 2.1 +/- 0.4%); assay type: functional
THP-1 [17] = assay: Pro-apoptotic activity in human THP1 cells assessed as early apoptotic cells at 0.5 uM after 24 hrs by annexin V/propidium iodide staining-based flow cytometric method (reference value: 0.4 +/- 0.1%); assay type: functional
[18] = Cell cycle arrest in human AsPC1 cells assessed as accumulation at G2/M phase at 30 uM after 24 hrs by flow cytometric method (reference value: 29 +/- 5%); assay type: functional, cell-based
ASPC1 [19] = assay: Pro-apoptotic activity in human AsPC1 cells assessed as necrotic cells at 10 uM after 24 hrs by annexin V/propidium iodide staining-based flow cytometric method (reference value: 2.1 +/- 0.4%); assay type: functional
THP-1 [20] = assay: Pro-apoptotic activity in human THP1 cells assessed as late apoptotic cells at 3 uM after 24 hrs by annexin V/propidium iodide staining-based flow cytometric method (reference value: 0.4 +/- 0.1%); assay type: functional
ASPC1 [21] = assay: Induction of pro-differentiation of human AsPC1 cells assessed as CD44 expression at 1 uM after 3 days by immunostaining-based micro-capillary flow cytometric method (reference value: 87 +/- 1%); assay type: functional
[22] = Cell cycle arrest in human THP1 cells assessed as accumulation at G0/G1 phase at 3 uM after 24 hrs by flow cytometric method (reference value: 51 +/- 6%); assay type: functional, cell-based; conditions: THP-1
[23] = Cell cycle arrest in human AsPC1 cells assessed as accumulation at G0/G1 phase at 30 uM after 24 hrs by flow cytometric method (reference value: 48 +/- 7%); assay type: functional, cell-based
[24] = Cell cycle arrest in human THP1 cells assessed as accumulation at G2/M phase at 10 uM after 24 hrs by flow cytometric method (reference value: 32 +/- 1%); assay type: functional, cell-based; conditions: THP-1
[25] = Cell cycle arrest in human THP1 cells assessed as accumulation at G0/G1 phase at 1 uM after 24 hrs by flow cytometric method (reference value: 51 +/- 6%); assay type: functional, cell-based; conditions: THP-1
[26] = Cell cycle arrest in human THP1 cells assessed as decrease in cell levels at G0/G1 phase after 24 hrs by flow cytometric method; assay type: functional, cell-based; conditions: THP-1
[27] = Cell cycle arrest in human AsPC1 cells assessed as accumulation at G2/M phase at 75 uM after 24 hrs by flow cytometric method (reference value: 29 +/- 5%); assay type: functional, cell-based
THP-1 [28] = assay: Pro-apoptotic activity in human THP1 cells assessed as necrotic cells at 30 uM after 24 hrs by annexin V/propidium iodide staining-based flow cytometric method relative to control; assay type: functional
[29] = Cell cycle arrest in human AsPC1 cells assessed as accumulation at S phase at 10 uM after 24 hrs by flow cytometric method (reference value: 23 +/- 3%); assay type: functional, cell-based
[30] = Cell cycle arrest in human AsPC1 cells assessed as accumulation at S phase at 100 uM after 24 hrs by flow cytometric method (reference value: 23 +/- 3%); assay type: functional, cell-based
THP-1 [31] = assay: Pro-apoptotic activity in human THP1 cells assessed as late apoptotic cells at 0.5 uM after 24 hrs by annexin V/propidium iodide staining-based flow cytometric method (reference value: 0.4 +/- 0.1%); assay type: functional
THP-1 [32] = assay: Pro-apoptotic activity in human THP1 cells assessed as early apoptotic cells at 3 uM after 24 hrs by annexin V/propidium iodide staining-based flow cytometric method (reference value: 0.4 +/- 0.1%); assay type: functional
THP-1 [33] = assay: Pro-apoptotic activity in human THP1 cells assessed as late apoptotic cells at 30 uM after 24 hrs by annexin V/propidium iodide staining-based flow cytometric method (reference value: 0.4 +/- 0.1%); assay type: functional
ASPC1 [34] = assay: Pro-apoptotic activity in human AsPC1 cells assessed as late apoptotic cells at 30 uM after 24 hrs by annexin V/propidium iodide staining-based flow cytometric method (reference value: 0.8 +/- 0.1%); assay type: functional
[35] = Cell cycle arrest in human AsPC1 cells assessed as accumulation at G0/G1 phase at 75 uM after 24 hrs by flow cytometric method (reference value: 48 +/- 7%); assay type: functional, cell-based

NC(=[Se])N/N=C/c1cccc2cccnc12
Activity (THP-1 [1]): 1.1% | Activity [2]: 32% | Activity (ASPC1 [3]): 1.7% | Activity [4]: 62% | Activity (THP-1 [5]): 0.7% | Activity (ASPC1 [6]): 0% | Activity [7]: 8.6% | Activity (ASPC1 [8]): 5.7% | Activity [9]: 30% | Activity [10]: 43% | Activity (THP-1 [11]): 2% | Activity (ASPC1 [12]): 0.2% | Activity (THP-1 [13]): 0.4% | Activity [14]: 34% | Activity [15]: 44% | Activity (ASPC1 [16]): 1.8% | Activity (THP-1 [17]): 1.7% | Activity [18]: 8.2% | Activity (ASPC1 [19]): 1.6% | Activity (THP-1 [20]): 3% | Activity (ASPC1 [21]): 53% | Activity [22]: 43% | Activity [23]: 69.2% | Activity [24]: 28% | Activity [25]: 43% | Activity [26]: Dose-dependent effect | Activity [27]: 14.4% | Activity (THP-1 [28]): 4% | Activity [29]: 21.3% | Activity [30]: 18.8% | Activity (THP-1 [31]): 2% | Activity (THP-1 [32]): 2.2% | Activity (THP-1 [33]): 46% | Activity (ASPC1 [34]): 1.1% | Activity [35]: 63.3%
